Here are results for two compounds from patent US8906945B2 (priority 2009, dated 2014).

“Also recorded” adds a separate entry of the source. Like-named read-outs stand apart in the source and are kept apart here.

For series [1], the system named is P. aeruginosa T3SS (exoT-luxCDABE reporter strain MDM852). It counts as cell-based, Pseudomonas aeruginosa. Conditions: for Serum Effect: % inhibition of exoT-lux RLU in the absence of serum/% inhibition in the presence of 10% fetal calf serum.
The test system of series [2] is P. aeruginosa. In words: Minimum inhibitory concentration (broth microdilution). The conditions noted are these: Pseudomonas aeruginosa, read-out: MIC vs. P. aeruginosa. On the technique in general: Dilution methods test growth across graded concentrations, often in twofold steps.
Series [3] relates to T3SS-mediated secretion of YopE-βLA fusion protein from Y. pestis strain JG153/pMM85. The series can be described thus: microbe, parasite or virus in culture. The format is cell-based. Conditions: Yersinia pestis.
A short description of series [4]: in vitro. The conditions noted are these: human.
For series [5], the system named is HeLa cells. The conditions noted are these: ratio of HeLa CC50 vs ExoS′-βLA IC50.
The subject of series [6] is T3SS-mediated secretion of ExoS′-βLA fusion protein from P. aeruginosa strain MDM973. In words: microbe, parasite or virus in culture. It counts as cell-based, Pseudomonas aeruginosa. Conditions: for IC50: Pseudomonas aeruginosa.
Series [7] deals with ExoU translocation from P. aeruginosa strain PAKΔSTYexoU into CHO cells. In words: Inhibition of P. aeruginosa ExoU-dependent CHO cell killing (LDH release). The conditions noted are these: ExoU-secreting P. aeruginosa, MOI 5. On the technique in general: LDH leaks from cells whose membrane has failed.
For series [8], the system named is Chlamydia trachomatis L2 in Hep-2 cells. In words: Chlamydia trachomatis growth inhibition assay. The format is cell-based. The method, then: Inhibition of the growth of Chlamydia trachomatis L2 strain by compounds was measured in 24-well plates essentially according to the method of Wolf et al. (59). Confluent monolayer Hep-2 cells were infected with L2 at an MOI of 0.5 and treated with compounds at indicated concentrations for 48 h. Then cultures were collected and sonicated. Entire lysates were used for counting inclusion forming units (IFUs) as a measurement of production of Chlamydia progeny elementary bodies (EBs) by re-plating onto fresh HeLa monolayers. An uninhibited control (DMSO only) and a complete inhibition control (chloramphenicol, 200 μg/ml) were included. Experiments were done in triplicate.

The test system of series [9] is HeLa cell internalization of P. aeruginosa. The series can be described thus: Gentamicin protection assay of bacterial internalization. The conditions noted are these: 50 μM, ExoT-producing P. aeruginosa, MOI 10.
Where [10] appears, read: read-out: ExoS′-βLA IC50, Table 3, secretion from P. aeruginosa strain MDM973 reduced by 50%.
Where [11] appears, read: 50 μM added after 2.5 hours of T3SS induction.

In general, MIC refers to the least concentration at which growth counts as inhibited. Usually IC50 stands for the midpoint of a concentration-inhibition curve. As for `CCN1CCOC(CC(=O)Nc2ccc3c(c2)OCCO3)C1=O` (centres unmarked) [Compound 3, N-(2,3-dihydrobenzo[b][1,4]dioxin-6-yl)-2-(4-ethyl-3-oxomorpholin-2-yl)acetamide], in series [1] (both at 50 μM compound), the “Serum Effect” value came out at 4.8. Moreover, in series [1] (% inhibition of exoT-lux RLU/% inhibition of lac-lux RLU, both at 50 μM compound), the “RLU Selectivity” value is reported as 4.1. In addition, the MIC in [2] is over 100 µM. Further, the figures for the IC50 in series [3] (read-out: yopE-βLA IC50), in series [6] (setting [10]) and in series [6] (read-out: IC50 in the ExoS′-βLA secretion assay) were 16 µM, 20 µM and at most 25 µM, respectively. Also, the CC50 in series [4] (CC50 (cytotoxicity, HeLa), absence of serum) was at least 100 µM; in [4] (HeLa CC50) it was over 100 µM. Also, the CC50/IC50 in series [5] was over 5.0. Moreover, the “rescue of CHO cells from ExoU cytotoxicity (in words)” value in series [7] is listed as “failed to inhibit T3SS-mediated translocation”.

For `CC(Oc1ccc(Cl)cc1Cl)C(=O)NCc1ccc2c(c1)OCO2` (racemic) [Compound 1, N-(benzo[d][1,3]dioxol-5-ylmethyl)-2-(2,4-dichlorophenoxy)propanamide], the “Serum Effect” value in [1] (both at 50 μM compound) turned out to be 3.7. Also, the “z-score in the high throughput screen” value in [1] (strain MDM852, RLU at 200 minutes) amounted to 10. The “reduction of growth of C. trachomatis L2 in Hep-2 cells” value in [8] (50 μM, MOI 0.5, listed as MBX 1641) is recorded as “significantly reduced; also recorded: inhibits the growth”. Moreover, the “concentration dependence of effect on C. trachomatis growth in Hep-2 cells” value in series [8] (FIG. 3D) was “concentration-dependent effect”. Moreover, in [2], the MIC is over 100 µM. Moreover, the concentration for half-maximal inhibition (IC50) in series [3] (read-out: IC50 of YopE-βLA secretion from Y. pestis strain JG153) is about 38 µM; in series [3] (read-out: yopE-βLA IC50), 22 µM; in series [6] (setting [10]), 12.5 µM; in series [6] (read-out: IC50 (μM) (ExoS′-βLA assay), Table 4), 10 µM. The “stimulation of internalization of bacterial cells by HeLa cells” value in [9] is recorded as “over 11 fold”. Moreover, the “time to 50% inhibition of ExoS′-βLA secretion” value in [6] (setting [11]) was at most 15 min. Moreover, the “time to 100% inhibition of ExoS′-βLA secretion” value in series [6] (setting [11]) was at most 45 min. Also, in series [6] (unpublished observations), the “potency when administered during or after the 2.5 hour EGTA induction of T3SS” value is on record as “equally potently”.
